This assay deals with T1, SPHK2 (Homo sapiens, UniProt Q9NRA0).
T1 construct: purchased Thermo Fisher Scientific (Life Technologies) SelectScreen
As to the kind of experiment: SelectScreen Adapta. The class given is biochemical. Conditions: ATP 10 µM. As to the method: The in vitro kinase selectivity of NU5455 was determined using the SelectScreen Broad Assay Panel (Thermo Fisher Scientific) involving activity and binding assays (Supplemental Table 1). […] Class IA PI3Ks were measured using the p85α subunit.
Kinase [ATP] % Assay Kinase [ATP] % Assay Kinase [ATP] % Assay Kinase [ATP] % Assay […]
MAPK14 (p38 alpha) Km app 9.7 Z SPHK2 10 3.1 A ICK n/a 0.0 L SGKL (SGK3) Km app -4.6 Z […]
SGK (SGK1) Km app 8.5 Z MAP4K2 (GCK) Km app 2.7 Z TLK2 n/a -0.3 L STK38 (NDR) n/a -5.9 L
MERTK (cMER) Km app 8.3 Z CDK2/cyclin A Km app 2.7 Z TGFBR1 (ALK5) n/a -0.4 L MATK (HYL) Km app -6.3 Z
FYN Km app 8.3 Z EPHA1 Km app 2.7 Z CLK3 Km app -0.5 Z ABL1 E255K Km app -6.6 Z
TEC n/a 8.1 L CDK2/cyclin E1 n/a 2.7 L MAP3K14 (NIK) n/a -0.5 L STK17A (DRAK1) n/a -6.6 L
KIT V654A n/a 8.1 L TESK2 n/a 2.7 L AKT3 (PKB gamma) Km app -0.5 Z JAK2 JH1 JH2 Km app -6.7 Z
ROS1 Km app 8.0 Z SPHK1 Km app 2.7 A MAP3K9 (MLK1) Km app -0.5 Z PRKACB (PRKAC beta) n/a -6.8 L
FGFR3 K650E Km app 7.9 Z AMPK A2/B1/G1 Km app 2.6 Z IKBKB (IKK beta) Km app -0.6 Z PDGFRA (PDGFR alpha) Km app -6.8 Z
RAF1 (cRAF) Y340D Y341D 100 7.9 Z DYRK3 Km app 2.6 Z CAMK2A (CaMKII alpha) Km app -0.6 Z NEK9 Km app -7.2 Z
PI4KA (PI4K alpha) 10 7.8 A CSNK1D (CK1 delta) Km app 2.6 Z PRKCB1 (PKC beta I) Km app -0.7 Z PDK1 Km app -7.3 Z
HIPK2 Km app 7.8 Z ACVR2A n/a 2.5 L TTK n/a -0.7 L RPS6KB1 (p70S6K) Km app -7.8 Z […]

T1 sequence (Q9NRA0 whole entry): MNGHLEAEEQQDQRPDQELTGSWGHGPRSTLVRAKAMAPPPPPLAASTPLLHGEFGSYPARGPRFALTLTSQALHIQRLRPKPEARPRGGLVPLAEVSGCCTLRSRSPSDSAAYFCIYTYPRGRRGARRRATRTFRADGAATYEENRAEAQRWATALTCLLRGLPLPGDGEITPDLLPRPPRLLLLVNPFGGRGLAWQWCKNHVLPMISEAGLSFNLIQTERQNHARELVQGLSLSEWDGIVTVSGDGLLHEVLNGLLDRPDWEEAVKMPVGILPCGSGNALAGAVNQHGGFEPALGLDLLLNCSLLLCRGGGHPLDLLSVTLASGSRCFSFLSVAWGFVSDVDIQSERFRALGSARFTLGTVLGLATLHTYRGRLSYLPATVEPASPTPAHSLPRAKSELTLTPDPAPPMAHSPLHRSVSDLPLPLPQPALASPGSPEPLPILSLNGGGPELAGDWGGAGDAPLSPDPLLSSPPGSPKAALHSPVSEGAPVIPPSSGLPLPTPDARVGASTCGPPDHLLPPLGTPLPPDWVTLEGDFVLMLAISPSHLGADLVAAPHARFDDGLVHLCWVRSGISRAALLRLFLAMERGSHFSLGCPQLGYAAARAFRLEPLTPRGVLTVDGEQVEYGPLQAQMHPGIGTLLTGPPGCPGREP

For the compound `CN(C(=O)CN1CCOCC1)c1ccc2sc3c(-c4cccc5c(=O)cc(N6CC7CCC(C6)O7)oc45)cccc3c2c1` [NU5455], the inhibition (as a rule, the relative decrease from the control value, in per cent) at 1 µM was determined as 3.1%.

For the origin of these results see publication PMC6934184, “Selective DNA-PKcs inhibition extends the therapeutic index of localized radiotherapy and chemotherapy” (The Journal of Clinical Investigation, 2019).
